Like-named read-outs stand apart in the source and are kept apart here. Blank lines part the entries; values can stand above or below the molecule they belong to.
Legend:
[1] = system: CAL51 cells; assay: Clonogenic (colony-forming) assay; type: cell-based, human; conditions: 0.1 nM BI2536 alone, 12 h exposure, 9 days growth
Experimental: Finally, a clonogenic assay was used to further evaluate the synergy effects between the L1 and Plk1 inhibitors to inhibit colony formation of breast cancer CAL51 cells after a 12 h drug exposure. The percentages of colony formation of cells treated with 0.1 nM BI2536 alone and 0.5 µM L1 alone were 89% and 67%, respectively, while cells treated with both 0.1 nM BI2536 and 0.5 µM L1 together were 2% (figure 10) indicating strong synergetic effects in colony formation.
Figure 10. Quantification of the colony formation experiments (n = 3) after a 12 h exposure. CAL51 cells were treated with vehicle control, 0.1 nM BI2536, 0.5 µM L1 or 0.1 nM BI2536 and 0.5 µM L1 for 12 h. Cells were grown for 9 days in fresh media after 12 h exposure. Mean ± s.e.m. (n = 3) is shown.
CAL51 cells were plated at a density of 200 cells per 60 mm tissue culture dish. After 24 h, they were treated with vehicle (DMSO), 0.1 nM BI2538, 0.5 µM L1 or the combination of 0.1 nM BI2538 and 0.5 µM L1, respectively, for 12 h. After an exposure, the cells were washed with warm sterile PBS, and incubated for additional 9 days in fresh media. After the incubation, cells were fixed and stained with a 20% MeOH: 0.01% crystal violet solution for 30 min. Colonies were counted using a stereomicroscope in three independent experiments.

[2] = system: HeLa cells; assay: Time-lapse live imaging of mitotic progression and cell fate in HeLa cells (H2B-mCherry, EGFP-α-tubulin); type: cell-based, human; conditions: for mitotic duration (prophase to cytokinesis): 24 h imaging, DMSO control 77 ± 6 min; for phenotype after mitotic arrest: 0.1 and 0.25 µM compound
Experimental: To determine whether these 34 compounds also induce mitotic abnormalities in human cells, a second screen of these compounds was conducted using HeLa cells. We used time-lapse microscopy to monitor mitotic progression in HeLa cells expressing mCherry-tagged histone H2B to mark chromatin, and EGFP-tagged α-tubulin to monitor microtubules over a 24 h time period in the presence of 2 µM of each of the 34 compounds. The duration of mitosis was determined by live-cell imaging, defined as the period from prophase to cytokinesis based on chromatin and microtubule morphologies (figure 2a). The control DMSO-treated cells progressed through mitosis with a mean mitotic duration of 77 ± 6 min. Among the 34 compounds we tested, nine caused a significant increase in mitotic duration in human cells (figure 2a), ranging from 122 ± 42 min (F15) to 720 ± 53 min (C16). […] As described in the Discussion, we have not carried out a detailed analysis for B8 in this study. To determine whether these cell deaths were caused by apoptosis, caspase activity was assayed for 24 h using time-lapse microscopy in the presence of the 12 compounds. Caspase 3 and Caspase 7 activities were observed 12–24 h after the addition of the compounds (electronic supplementary material, figure S1A). There were also other indications of apoptosis including the morphological chances reminiscing of membrane blebbing, chromatin condensation and cell explosion (electronic supplementary material, figure S1B). Caspase-mediated apoptosis induction is similar to the effects of mitotic arrest caused by anti-microtubule drugs in HeLa cells. […] We conclude that these 12 compounds cause mitotic arrest followed by cell death through apoptotic activation.
Figure 2. Effect of compounds on mitotic progression in HeLa cell (a). Duration of mitosis was analysed by live imaging of HeLa cells stably expressing H2B-mcherry (red) and EGFP-a tubulin (green) treated in the presence of 0.5 µM (K1, L1, J1) or 2 µM (C16, E2, O12, M2, I15, J3, I2, A15, F15) compound for 24 h and the time in mitosis was measured in 200 cells. DMSO-treated cells are shown, which served as the vehicle control. Show mean as ‘+’. (b). The Cell fate after mitosis (normal division, abnormal division or cell death) was quantitatively assessed after the mitotic arrest observed in (a). (c) Dose-dependent change of phenotypes after mitotic arrest with K1, L1 and J1.
For live-cell imaging experiments, 200 000 cells were seeded onto glass-bottom culture dishes (MatTek P35GC-1.5-14-C). Cells were grown overnight before the addition of the compound, and the culture media was replaced with fresh media lacking phenol red to limit phototoxicity before imaging.
Live-cell imaging was performed in a LCV110 U VivaView FL incubator microscope (Olympus) equipped with an X-Cite-exacte illumination source (Excelitas Technologies) and Orca-R2 CCD camera (Hamamatsu Photonics). For screening, images were acquired with a 20 × objective every 15 min for 24–48 h in the differential interference contrast (DIC), m-cherry and GFP channels. For assessment of apoptosis, the cells were monitored every 15 min for 24 h. Individual cells were manually analysed using the CellCognition browser.

[3] = molecular target: T1, porcine brain tubulin heterodimer (Sus scrofa, UniProt P02550+P02554); assay: In vitro tubulin polymerization assay; type: biochemical; conditions: 37°C; for IC50: figure 3c, 1 h
T1 construct: highly purified porcine brain tubulin heterodimer; purchased Cytoskeleton T240 (kit BK011P); host or cells: porcine brain tissue
Experimental: To determine whether the 12 compounds affected mitotic spindle organization by directly interfering with tubulin polymerization, we performed in vitro tubulin polymerization assays. […] Tubulin polymerization was monitored every 1 min by measuring fluorescence absorbance at 340 nm for 1 h.
Figure 3. […] Tubulin was incubated with 5 µM of the compounds and DMSO for 60 min at 37°C. The fluorescence increase was monitored every minute at 340 nm. […] (b). […] Nocodazole (NOC) was used as the control. (c). […] (d) The same experiment as (c) but carried out at a different time.
The Tubulin Polymerization HTS Assay Kit (Cytoskeleton, BK011P) was used according to the manufacturer's instructions. All components were added into a 96-well microtiter plate (Corning Costar, cat. no. 3686), then the tubulin reaction mixture was quickly added to the wells, and tubulin polymerization was initiated and monitored every 1 min at 37°C for 1 h by recording fluorescence of excitation wavelength at 340 nm and emission at 450 nm. The tubulin reaction mixture was composed of 80 mM PIPES (pH 6.9), and 1 mM MgCl2, 1 mM EGTA, 1 mM GTP and 2 mg ml^−1 of highly purified porcine brain tubulin heterodimer (Cytoskeleton, cat. no. T240).

[4] = system: BT549, CAL51 and MB-157 breast cancer cell lines; assay: Viability dose-response in breast cancer cell lines; type: cell-based; conditions: Homo sapiens, 96 h; range over the breast cell lines and the non-cancer cell line MCF-10A; 4 days of treatment
Experimental: The sensitivity of the inhibitors L1, J3, A15 and M2 were evaluated in three breast cancer cell lines, (BT549, CAL51 and MB-157) and a non-cancer cell line from the human mammary gland, MCF-10A (figure 8). Drug sensitivity was determined by culturing breast cancer cell lines (black lines) and the non-cancer cell line (red line) with a range of concentrations of each compound, and viability was measured after 4 days of treatment in triplicate.
Figure 8. Dose–response curves in three cancer cell lines (BT549, CAL51 and MB-157) are shown in black and non-cancer cell line; MCF-10A is shown in red. They were subjected to a dose–response matrix of the tubulin inhibitor, L1, A15, M2 and J3, respectively. Viability relative to the vehicle control was measured […] after treatment. Mean ± s.e.m. for n = 3 experiments is shown.
(§1) Cells were plated in 384-well plates at a density of 800 cells per well in 22.5 µl of media. After 24 h, 2.5 µl drug was diluted in media and was added to each well. Following 5 days of incubation, viability was assessed using CellTiter-Glo (Promega) according to the manufacture's protocol. Luminescence in each well was measured using a Synergy Neo2 plate reader (BioTek).

[5] = system: MDR-sup fission yeast; assay: Phenotypic assay of microtubule organization in MDR-sup strain expressing GFP-atb2; type: cell-based, Schizosaccharomyces pombe; conditions: same phenotype = no interphase microtubules or mitotic spindles detectable, tubulin in nucleus; figure S2
Experimental: We have previously screened a collection of 10 371 small molecules to identify compounds that inhibit the growth of a multiple-drug-sensitive fission yeast strain (MDR-sup). We selected 248 compounds (2.4% of the total) that inhibited fission yeast cell growth rate by at least 50% (figure 1a) and subsequently conducted a phenotypic screen of these to identify drugs that affect microtubule organization (figure 1b). After the MDR-sup cells were treated with 5 µM of each compound for 3 h, microtubules were monitored using GFP tagged α-tubulin Atb2 and live-cell fluorescence microscopy. In untreated interphase cells, microtubules form long cytoplasmic arrays that run parallel to the long cellular axis, and in mitotic cells, microtubules form a bipolar spindle in the nucleus and the cytoplasmic microtubules disappear (figure 1c(i), arrow). […] This screen identified 34 compounds that induced cytological phenotypes indicative of defects in microtubule organization or function.
Figure 1. Phenotypic screening in MDR-sup fission yeast (a). Growth assay screening using MDR-sup strain. The optical density was measured with 20 µM of each compound and 248 compounds that gave at least 50% growth inhibition were used for further phenotyping marked by the red lines. Growth was normalized to DMSO-treated cells. (b) Schematic representation of the screening workflow. (c) Examples of the phenotypic assay using L1, P2 and B8 in the MDR-sup strain expressing GFP-atb2 (tubulin) are shown. Cells were incubated in 5 µM compound for 3 h and atb2 signals were detected in living cells. (i) Cells in absence of any compound. In interphase cells, α-tubulin Atb2 protein was detected in the nucleus and interphase microtubules, while mitotic spindles were detected in mitotic cells (arrows). (ii) In the presence of L1, microtubules were depolymerized and tubulin signals were detected distributed throughout the nucleus. (iii) In the presence of P2, short spindles were detected but anaphase spindles were not. (iv) In the presence of B8, interphase microtubules were not detected, while, dots were detected. […]

[6] = system: WTβIII HeLa cell line; assay: Cell viability in HeLa cell line overexpressing wild-type βIII tubulin; type: cell-based; conditions: Homo sapiens
Experimental: One of the main mechanisms of drug resistance is due to the overexpression of class III β tubulin. […] The ability of L1 to overcome β III tubulin-mediated multidrug resistance was evaluated in two HeLa isogenic cell lines.
Figure 7.
as §1

[7] = read-out: IC50 of tubulin polymerization

T1 sequence (P02554 whole entry): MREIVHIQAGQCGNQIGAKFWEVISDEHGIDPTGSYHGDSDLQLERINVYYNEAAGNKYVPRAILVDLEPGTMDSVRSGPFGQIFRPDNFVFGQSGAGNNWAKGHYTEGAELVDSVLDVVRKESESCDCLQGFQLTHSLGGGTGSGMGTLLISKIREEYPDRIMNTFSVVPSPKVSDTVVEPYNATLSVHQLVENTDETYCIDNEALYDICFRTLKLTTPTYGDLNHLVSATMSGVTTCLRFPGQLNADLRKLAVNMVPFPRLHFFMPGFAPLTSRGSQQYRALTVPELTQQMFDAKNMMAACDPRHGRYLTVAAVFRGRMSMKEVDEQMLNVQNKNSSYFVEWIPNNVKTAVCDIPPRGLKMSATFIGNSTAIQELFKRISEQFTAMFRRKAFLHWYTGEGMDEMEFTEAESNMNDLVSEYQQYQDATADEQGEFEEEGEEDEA
T1 sequence (P02550 whole entry): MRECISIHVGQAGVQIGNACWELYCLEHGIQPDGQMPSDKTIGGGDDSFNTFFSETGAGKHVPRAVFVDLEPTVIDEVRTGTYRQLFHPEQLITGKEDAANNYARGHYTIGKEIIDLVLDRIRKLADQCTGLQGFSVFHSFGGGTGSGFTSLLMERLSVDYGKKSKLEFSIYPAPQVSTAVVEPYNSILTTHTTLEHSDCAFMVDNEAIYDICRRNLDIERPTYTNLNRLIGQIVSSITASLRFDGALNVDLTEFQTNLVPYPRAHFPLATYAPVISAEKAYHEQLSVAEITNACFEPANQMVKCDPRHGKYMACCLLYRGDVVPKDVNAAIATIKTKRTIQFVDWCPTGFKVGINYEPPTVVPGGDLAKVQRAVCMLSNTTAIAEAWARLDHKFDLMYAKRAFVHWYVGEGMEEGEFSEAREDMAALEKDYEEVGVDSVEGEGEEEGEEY

Structure (SMILES): CC[C@@H]1C(=O)N(C)c2cnc(Nc3ccc(C(=O)NC4CCN(C)CC4)cc3OC)nc2N1C1CCCC1 [BI2536, reference compound]
percentage of colony formation [1]: 89%

Structure (SMILES): Nc1nn(S(=O)(=O)c2c(F)c(F)c(F)c(F)c2F)cc1-c1ccc(Cl)cc1 [C16]
mitotic duration (prophase to cytokinesis) ([2]; 2 µM compound): 720 ± 53 min

effect on in vitro tubulin polymerization ([3]; 5 µM compound, 60 min): no observable effects on polymerization
Structure (SMILES): CC(C)(C)C#C/C=N/n1nnc(-c2ccccc2)n1 [F15]
mitotic duration (prophase to cytokinesis) ([2]; 2 µM compound): 122 ± 42 min

Structure (SMILES): COc1ccc(C2Oc3ccc4ccccc4c3C=C2[N+](=O)[O-])cc1OC (centres unmarked) [J1]
cell fate ([2]; 0.5 µM compound): arrested cells initially in mitosis, followed by cell death | cell fate ([2]; 2 µM compound): immediately induced cell death independent of the phase of the cell cycle | phenotype after mitotic arrest [2]: abnormal multipolar, asymmetric cell divisions, generating 3–4 daughter cells

IC50 [3, 7]: 590 nM
Structure (SMILES): O=[N+]([O-])C1=Cc2ccccc2OC1c1ccc2c(c1)OCO2 (centres unmarked) [K1]
cell fate ([2]; 0.5 µM compound): arrested cells initially in mitosis, followed by cell death | cell fate ([2]; 2 µM compound): immediately induced cell death independent of the phase of the cell cycle | phenotype after mitotic arrest [2]: abnormal multipolar, asymmetric cell divisions, generating 3–4 daughter cells

IC50 [3, 7]: 220 nM
Structure (SMILES): N#CCCS(=O)(=O)c1nnnn1-c1ccccc1 [M2]
IC50 [4]: 1400 to 1900 nM

Structure (SMILES): COC(=O)Nc1nc2ccc(C(=O)c3cccs3)cc2[nH]1 [NOC, nocodazole, reference compound]
microtubule phenotype with known inhibitors of microtubule polymerization [5]: same phenotype | IC50 ([3]; IC50 of tubulin polymerization): 560 nM

Structure (SMILES): CCCCNC(=O)n1c(NC(=O)OC)nc2ccccc21 [benomyl]
microtubule phenotype with known inhibitors of microtubule polymerization [5]: same phenotype

IC50 [6]: 5.6 nM
Structure (SMILES): CC(=O)O[C@H]1C(=O)[C@@]2(C)[C@H]([C@H](OC(=O)c3ccccc3)[C@]3(O)C[C@H](OC(=O)[C@H](O)[C@@H](NC(=O)c4ccccc4)c4ccccc4)C(C)=C1C3(C)C)[C@]1(OC(C)=O)CO[C@@H]1C[C@@H]2O [paclitaxel]

Source: paper PMC8424300, “Identification of novel microtubule inhibitors effective in fission yeast and human cells and their effects on breast cancer cell lines” (Open Biology, 2021)
